Laboratory results: publication PMC11672292, “Discovery of Balasubramide Derivative with Tissue‐Specific Anti‐Inflammatory Activity Against Acute Lung Injury by Targeting VDAC1” (Advanced Science, 2024)

How the values were obtained:
in vivo = conditions: mouse, iv
Excerpt: (§1) To test the safety of (+)3C‐20 in mice, as previously reported,^[ [31] ^] we estimated the acute toxicity of (+)3C‐20 in mice using a sequential method.

RAW264.7 cells = assay: CCK-8 cell viability assay; assay type: cell-based, mouse; conditions: 10 μM, 24 h
Procedure: Cell viability was determined by CCK‐8 assay. RAW264.7 cells or mouse BMDMs cultured in a 96‐well plate were pretreated with various compounds at 10 µM or different concentrations of (+)3C‐20 for 24 h when cells reached 70% confluence and then were treated with DMEM containing 5 µL CCK‐8 reagent (A311, Vazyme, China) in a humidified atmosphere of 5% CO2 and 95% air for 1 h at 37 °C. The UV absorption values of the medium with CCK‐8 were measured at 450 nm in a ThermoFisher plate‐reader (VL0L0TD2, Waltham, USA).

mice = assay: Acute toxicity (LD50, sequential method), single intravenous injection; conditions: i.v.
Excerpt: as §1

[1] = test system: intratracheal LPS-induced ALI mice; assay: Intratracheal instillation of LPS-induced ALI model; assay type: in vivo, mouse
Procedure: The intratracheal instillation of the LPS‐induced ALI model in mice has been previously validated.^[ [60], [61] ^] […] The injection volume of all groups was 10 mL kg^−1. […] The mice were fixed in dorsal recumbency, then the skins and muscles of the mice were separated to expose the tracheal after disinfection. Subsequently, mice were intratracheally injected with 50 µL LPS (20 mg kg^−1) or PBS into the lung through tracheal cartilage rings by using insulin syringes and observed after stitching up the muscles and skins. At 6 h after LPS injection, mice were euthanized to collect samples required for subsequent experiments.
After mice were sacrificed, the left lung tissue fixed with 4% paraformaldehyde was embedded in paraffin, cut into 5 µm thick sections, and stained with hematoxylin and eosin.
Mice were stimulated and treated as indicated in experiments and the lung was lavaged three times through the trachea with 500 µL pre‐chilled PBS buffer. The fluids were merged and centrifuged at 600 × g for 10 min. The supernatant was collected to measure total protein using the BCA kit and for pro‐inflammatory cytokines detection by ELISA described above, and cell pellets after centrifugation were resuspended in FACS buffer (PBS with 1% FBS). […] Finally, the samples were washed twice with FACS buffer and analyzed with Cytoflex S (Beckman coulter, USA)

[2] = test system: LPS-stimulated RAW264.7 cells; assay: LPS-induced TNF-α release in RAW264.7 macrophages (ELISA); assay type: cell-based, mouse; conditions: Mus musculus, RAW264.7 cells
Procedure: The anti‐inflammatory effects of all (+)‐balasubramide derivatives were evaluated in Lipopolysaccharide (LPS, L2630, Sigma–Aldrich, USA)‐induced macrophage inflammation model. RAW264.7 cells were pretreated with various compounds or (+)3C‐20 at different concentrations for 3 h, and then stimulated with LPS (100 ng mL^−1) for 2 h for the detection of pro‐inflammatory factors expressions. Similarly, following 3 h co‐incubation with (+)3C‐20, mouse BMDMs were stimulated with LPS (100 ng mL^−1) for 3 h. TNF‐α protein in the culture medium supernatant was measured by a commercial ELISA kit (#1 217 202, DAKEWE, China) following the manufacture's protocols.

## O=C(CCc1ccc(C(F)(F)F)cc1)O[C@@H]1C(=O)NCCc2c([nH]c3ccccc23)[C@H]1c1ccc(C(F)(F)F)cc1 [(+)3C-20]
In vivo
  LD50: 185 mg/kg
RAW264.7 cells
  cell viability: 103.97 ± 3.88
mice; dosage 141.42 mg/kg
  Mortality: 0
mice; dosage 168.18 mg/kg
  Mortality: 20
mice; dosage 200.00 mg/kg
  Mortality: 83.33
mice; dosage 237.84 mg/kg
  Mortality: 100
[1]; 50 mg kg^−1, compared to dexamethasone 5 mg kg^−1
  therapeutic effect in H&E lung histology: better therapeutic effect
[1]; after intratracheal instillation of LPS, 72 h observation, versus vehicle group
  survival rate of mice: increased the survival rate
[1]; mice, 50 mg kg^−1 i.p., LPS 20 mg kg^−1 i.t.
  lung index (lung organ coefficient): reverse the upregulation of lung index
[1]; pre-treatment at 50 mg kg^−1, LPS 20 mg kg^−1 i.t.
  lung wet/dry ratio: significantly reduced
[2]; 10 μM + LPS (100 ng/mL), n = 3, read-out: Inhibition rate (%) of TNF-α release
  inhibition at 10 µM: 82 ± 3.93%
[2]; read-out: IC50, inhibition of LPS-induced TNF-α release
  IC50: 11.8 µM
